Experimental data taken from patent publication US4701205A, “Chemical tobacco sucker control” (Chevron Research Company, priority 1986, dated 1987).
Where two headings read alike, the source gives them in different places.

What was measured:
[1] = test system: tobacco suckers (axillary buds); test: Tobacco sucker control, foliar paint (expanded leaves only); type: in vivo; settings: for inhibition at 400 µg/mL: Nicotiana tabacum, read-out: Percent Bud Inhibition Top Three Nodes; for Sucker control when applied only to the leaves (systemic action), in words: applied only to the leaves of the tobacco plant
Procedure: (§1) Twenty-four hours before treatment, the tobacco plants are "topped", removing the top 15 cm of the plant. Any plants which are tending to lean or bend in the pot were staked, and all pots labeled. Three to five replicates were used per treatment. A 5% wt. stock solution of each test compound dissolved in acetone containing a small amount of non-ionic emulsifier was prepared. The stock solution was appropriately diluted with deionized water containing 0.625 g of emulsifier per liter of water, to the desired spray solution concentration.
(§2) Plants were sprayed to point of run-off with a pressure atomizer, making sure that the stem, leaf axils, and leaves were all wet thoroughly with the solution. 30 to 35 ml of solution were used per plant. This was checked by recording volume of solution in sprayer reservoir before and after treatment. After spraying, the plants were incubated for 18 to 23 days in a greenhouse maintained at 70°-80° F. using standing water capilliary irrigation. The plants were uniformly fertilized once per week with a standard house plant fertilizer. After the incubation period, the plants were evaluated at various times for sucker control. To make this evaluation, the axillary buds at the top three nodes (primary suckers) of each plant were compared to those of the check, and a visual estimation of percent inhibition was made wherein 0=no inhibition of axillary buds as compared with check and 100=no axillary buds at top three nodes. The growth of secondary suckers (buds at lower nodes) when present, were also measured.
(§3) In this example, the title compound of Example 1 was tested side-by-side with maleic hydrazide for tobacco sucker control (inhibition), when applied as a soil drench and also when applied only to the leaves of the plant. The same general procedure as described in Example 3 was used with the exception that the test compound was applied only to the expanded leaves for foliage treatment (foliar paint) and the compound was drenched only on the soil in the pot for soil drench treatment. The average results of these tests are given in the following table, wherein 0=no inhibition and 100=complete inhibition, i.e., no axillary buds.

[2] = test system: tobacco suckers (axillary buds); test: Tobacco sucker control, soil drench treatment; type: in vivo; settings: for inhibition at 400 µg/mL: Nicotiana tabacum, read-out: Percent Bud Inhibition Top Three Nodes
Procedure: as §1, §2, §3

[3] = test system: tobacco suckers (axillary buds), Var. Glurk; test: Tobacco sucker control, spray to run-off on topped plants, Var. Glurk; type: in vivo, Nicotiana tabacum; settings: for inhibition at 200 µg/mL / inhibition at 400 µg/mL / inhibition at 800 µg/mL / inhibition at 1600 µg/mL: Nicotiana tabacum; for Mean # of Nodes with Secondary Suckers / Mean Sucker Length (cm): Table 3
Procedure: In this example, the title compound of Example 1 (i.e., 2-[1-(3-trans-chloroallyloxyamino)ethylidene]-5-(2-ethylthiopropyl)cyclohexane-1,3-dione was tested side-by-side with 2-[1-(3-trans-chloroallyloxyamino)butylidene]-5-(2-ethylthio-propyl)-cyclohexane-1,3-dione for their ability to control (retard or prevent) lateral axillary buds in tobacco plants.
as §1
as §2, with “To make this evaluation, the axillary buds at the top three nodes (primary suckers) of each plant were compared to those of the check, and a visual estimation of percent inhibition was made wherein 0=no inhibition of axillary buds as compared with check and 100=no axillary buds at top three nodes.” left out
(§4) In some instances, comparisons were also made on the basis of sucker length.
(§5) The results are reported as an average of the replicates used in each test.
(§6) In this example, the title compound of Example 1 was tested side-by-side with maleic hydrazide ("C-2") with respect to axillary bud control in two varities of tobacco plants. These tests were conducted following the same general procedure as described in Example 3 hereinabove using the dosage concentrations given in the tables hereinbelow. […]

[4] = test system: tobacco suckers (axillary buds), Var. 12 × L8; test: whole plant or invertebrate; type: in vivo, Nicotiana tabacum; settings: for inhibition at 200 µg/mL / inhibition at 400 µg/mL / inhibition at 800 µg/mL: Nicotiana tabacum, read-out: Percent Bud Inhibition Top Two Nodes; for Mean # of Nodes with Secondary Suckers / Mean Sucker Length (cm): Table 3
Procedure: as §1
as §2, with “To make this evaluation, the axillary buds at the top three nodes (primary suckers) of each plant were compared to those of the check, and a visual estimation of percent inhibition was made wherein 0=no inhibition of axillary buds as compared with check and 100=no axillary buds at top three nodes.” left out
as §4, §5, §6

[5] = 504 h, Table I, 400 mg/l spray, three weeks after treatment, read-out: Percent Bud Inhibition
[6] = 504 h, Table I, 800 mg/l spray, three weeks after treatment, read-out: Percent Bud Inhibition
[7] = 504 h, Table I, 1600 mg/l spray, three weeks after treatment, read-out: Percent Bud Inhibition
[8] = 1008 h, Table I, 400 mg/l spray, six weeks after treatment, read-out: Percent Bud Inhibition Top two Nodes
[9] = 1008 h, Table I, 800 mg/l spray, six weeks after treatment, read-out: Percent Bud Inhibition Top two Nodes
[10] = 1008 h, Table I, 1600 mg/l spray, six weeks after treatment, read-out: Percent Bud Inhibition Top two Nodes
[11] = 200 mg/l spray, six weeks after treatment
[12] = 400 mg/l spray, six weeks after treatment
[13] = 800 mg/l spray, six weeks after treatment
[14] = Table I, 400 mg/l spray, six weeks after treatment
[15] = Table I, 400 mg/l spray, three weeks after treatment
[16] = Table I, 800 mg/l spray, six weeks after treatment
[17] = Table I, 800 mg/l spray, three weeks after treatment
[18] = Table I, 1600 mg/l spray, six weeks after treatment
[19] = Table I, 1600 mg/l spray, three weeks after treatment
[20] = Soil Drench, 400 mg/l, six weeks after treatment
[21] = 504 h, read-out: Percent Bud Inhibition Top Two Nodes
[22] = 1008 h, read-out: Percent Bud Inhibition Top Two Nodes

CCSC(C)CC1CC(=O)C(=C(C)NOC/C=C/Cl)C(=O)C1 (stereo not drawn) [Compound 1, Trans-2-[1-(3-chloroallyloxyamino)-ethylidene]-5-(2-ethylthiopropyl)-cyclohexane-1,3-dione]
Observation on suckers at basal nodes (footnote a) ([1]; Foliar Paint, 400 mg/l, six weeks after treatment): some suckers appearing at basal nodes | inhibition at 400 µg/mL ([1]; 504 h, Foliar Paint (Leaves Only), 400 mg/l, three weeks after treatment): 98% | inhibition at 400 µg/mL ([1]; 1008 h, Foliar Paint (Leaves Only), 400 mg/l, six weeks after treatment): 99% | Sucker control when applied only to the leaves (systemic action), in words [1]: highly effective | inhibition at 400 µg/mL ([2]; 504 h, Soil Drench (30 ml/pot), 400 mg/l, three weeks after treatment): 100% | inhibition at 400 µg/mL ([2]; 1008 h, Soil Drench (30 ml/pot), 400 mg/l, six weeks after treatment): 100% | Sucker control when applied as a soil drench (systemic action), in words [2]: highly effective | inhibition at 200 µg/mL ([3]; 504 h, Table 2, 200 mg/l spray, three weeks after treatment, read-out: Percent Bud Inhibition Top Two Nodes): 100% | inhibition at 400 µg/mL ([3]; 504 h, Table 2, 400 mg/l spray, three weeks after treatment, read-out: Percent Bud Inhibition Top Two Nodes): 100% | inhibition at 800 µg/mL ([3]; 504 h, Table 2, 800 mg/l spray, three weeks after treatment, read-out: Percent Bud Inhibition Top Two Nodes): 100% | inhibition at 400 µg/mL [3, 5]: 100% | inhibition at 800 µg/mL [3, 6]: 100% | inhibition at 1600 µg/mL [3, 7]: 100% | inhibition at 200 µg/mL ([3]; 1008 h, Table 2, 200 mg/l spray, six weeks after treatment, read-out: Percent Bud Inhibition Top Two Nodes): 100% | inhibition at 400 µg/mL ([3]; 1008 h, Table 2, 400 mg/l spray, six weeks after treatment, read-out: Percent Bud Inhibition Top Two Nodes): 100% | inhibition at 800 µg/mL ([3]; 1008 h, Table 2, 800 mg/l spray, six weeks after treatment, read-out: Percent Bud Inhibition Top Two Nodes): 100% | inhibition at 400 µg/mL [3, 8]: 100% | inhibition at 800 µg/mL [3, 9]: 100% | inhibition at 1600 µg/mL [3, 10]: 100% | Mean # of Nodes with Secondary Suckers [3, 11]: 2.5 | Mean Sucker Length (cm) [3, 11]: 30.8 cm | Mean # of Nodes with Secondary Suckers [3, 12]: 1.5 | Mean Sucker Length (cm) [3, 12]: 9.6 cm | Mean # of Nodes with Secondary Suckers [3, 13]: 0.5 | Mean Sucker Length (cm) [3, 13]: 10.0 cm | Number of Secondary Suckers (axillary buds at lower nodes) [3, 14]: 2.3 | Total Sucker Length [3, 14]: 24 cm | Number of Usable Leaves [3, 15]: 6.7 | Number of Secondary Suckers (axillary buds at lower nodes) [3, 16]: 1.3 | Total Sucker Length [3, 16]: 7 cm | Number of Usable Leaves [3, 17]: 6.7 | Number of Secondary Suckers (axillary buds at lower nodes) [3, 18]: 0 | Total Sucker Length [3, 18]: 0 cm | Number of Usable Leaves [3, 19]: 6.3 | inhibition at 200 µg/mL ([4]; 504 h, Table 2, 200 mg/l spray, three weeks after treatment): 95% | inhibition at 400 µg/mL ([4]; 504 h, Table 2, 400 mg/l spray, three weeks after treatment): 93% | inhibition at 800 µg/mL ([4]; 504 h, Table 2, 800 mg/l spray, three weeks after treatment): 95% | inhibition at 200 µg/mL ([4]; 1008 h, Table 2, 200 mg/l spray, six weeks after treatment): 86.3% | inhibition at 400 µg/mL ([4]; 1008 h, Table 2, 400 mg/l spray, six weeks after treatment): 96.9% | inhibition at 800 µg/mL ([4]; 1008 h, Table 2, 800 mg/l spray, six weeks after treatment): 96.8% | Mean # of Nodes with Secondary Suckers [4, 11]: 4.0 | Mean Sucker Length (cm) [4, 11]: 24.0 cm | Mean # of Nodes with Secondary Suckers [4, 12]: 2.6 | Mean Sucker Length (cm) [4, 12]: 45.3 cm | Mean # of Nodes with Secondary Suckers [4, 13]: 2.3 | Mean Sucker Length (cm) [4, 13]: 17.4 cm

CCCC(NOC/C=C/Cl)=C1C(=O)CC(CC(C)SCC)CC1=O (stereo not drawn) [Compound C-1, 2-[1-(3-trans-chloroallyloxyamino)butylidene]-5-(2-ethylthio-propyl)-cyclohexane-1,3-dione]
inhibition at 400 µg/mL [3, 5]: 0% | inhibition at 800 µg/mL [3, 6]: 0% | inhibition at 1600 µg/mL [3, 7]: 7% | inhibition at 400 µg/mL [3, 8]: 0% | inhibition at 800 µg/mL [3, 9]: 0% | inhibition at 1600 µg/mL [3, 10]: 0% | Number of Secondary Suckers (axillary buds at lower nodes) [3, 14]: 0 | Total Sucker Length [3, 14]: 0 cm | Number of Usable Leaves [3, 15]: 7.3 | Number of Secondary Suckers (axillary buds at lower nodes) [3, 16]: 0 | Total Sucker Length [3, 16]: 0 cm | Number of Usable Leaves [3, 17]: 7.7 | Number of Secondary Suckers (axillary buds at lower nodes) [3, 18]: 0 | Total Sucker Length [3, 18]: 0 cm | Number of Usable Leaves [3, 19]: 6.0

O=c1ccc(=O)[nH][nH]1 [Compound C-2, maleic hydrazide]
inhibition at 400 µg/mL ([1]; foliar, 504 h): 15% | inhibition at 400 µg/mL ([1]; foliar, 1008 h): 0% | Sucker control when applied only to the leaves (systemic action), in words [1]: does not translocate effectively | inhibition at 400 µg/mL ([2]; soil, 504 h): 79% | inhibition at 400 µg/mL ([2]; soil, 1008 h): 84% | Observation on new growth (footnote b) [2, 20]: new growth deformedstrap shaped leaves | Observation on suckers at basal nodes (footnote a) [2, 20]: some suckers appearing at basal nodes | Sucker control when applied as a soil drench (systemic action), in words [2]: operates sytemically | inhibition at 200 µg/mL [3, 21]: 10% | inhibition at 400 µg/mL [3, 21]: 88% | inhibition at 800 µg/mL [3, 21]: 93% | inhibition at 200 µg/mL [3, 22]: 31.1% | inhibition at 400 µg/mL [3, 22]: 100% | inhibition at 800 µg/mL [3, 22]: 100% | Mean # of Nodes with Secondary Suckers [3, 11]: 0 | Mean Sucker Length (cm) [3, 11]: 0 cm | Mean # of Nodes with Secondary Suckers [3, 12]: 1.5 | Mean Sucker Length (cm) [3, 12]: 51.0 cm | Mean # of Nodes with Secondary Suckers [3, 13]: 2.5 | Mean Sucker Length (cm) [3, 13]: 31.0 cm | inhibition at 200 µg/mL ([4]; 504 h): 0% | inhibition at 400 µg/mL ([4]; 504 h): 23% | inhibition at 800 µg/mL ([4]; 504 h): 95% | inhibition at 200 µg/mL ([4]; 1008 h): 12.7% | inhibition at 400 µg/mL ([4]; 1008 h): 54.1% | inhibition at 800 µg/mL ([4]; 1008 h): 100% | Mean # of Nodes with Secondary Suckers [4, 11]: 0.3 | Mean Sucker Length (cm) [4, 11]: 3.0 cm | Mean # of Nodes with Secondary Suckers [4, 12]: 1.3 | Mean Sucker Length (cm) [4, 12]: 76.8 cm | Mean # of Nodes with Secondary Suckers [4, 13]: 5.3 | Mean Sucker Length (cm) [4, 13]: 25.8 cm

CCC(C)Nc1c([N+](=O)[O-])cc(C(C)(C)C)cc1[N+](=O)[O-] (stereo not shown) [Compound C-3, 4-(1,1-dimethylethyl)-N--(1-methyl-propyl)-2,6-dinitrobenzenamine]
inhibition at 400 µg/mL ([1]; foliar, 1008 h): 3% | Sucker control when applied only to the leaves (systemic action), in words [1]: ineffective | inhibition at 400 µg/mL ([2]; soil, 1008 h): 27% | Sucker control when applied as a soil drench (systemic action), in words [2]: ineffective
